# From US20250186456A1, “PYRIMIDINE-FUSED CYCLIC COMPOUND AND PREPARATION METHOD AND USE THEREOF” (Genfleet Therapeutics (Shanghai) Inc., priority 2021, published 2025)
# Where two headings read alike, the source gives them in different places.
# Tests used:
# Assay type in all cases: cell-based, human
# [1] = system: AsPC-1 cells (KRAS G12D mutation); assay: Cell proliferation inhibition assay, 3D, CellTiter-Glo 3D, AsPC-1; conditions: AsPC-1 3D sphere model, 5 days incubation
# Method in brief: (§1)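 Spheroids (800 AsPC-1 or 400 AGS cells/well; RPMI-1640 or F-12K with 10% FBS) formed overnight, then were dosed on day 2 with a 3.16-fold series at 0.1% DMSO. After 5 days, viability was read by CellTiter-Glo 3D luminescence, and IC50 came from four-parameter fits of inhibition versus DMSO control and medium blank.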
# [2] = system: p-ERK in AGS cells (KRAS G12D mutation); assay: Cell p-ERK assay (HTRF, Advance ERK phospho-T202/Y204 kit); conditions: AGS cells, 3 hours incubation with compound, HTRF, read-out: AGS p-ERK IC50
# Method in brief: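 Phospho-ERK (T202/Y204) measured by HTRF in lysates of human gastric AGS cells carrying KRAS G12D, after 3 h compound exposure at 0.1% DMSO over a 3.16-fold series. Percent inhibition relative to DMSO control and lysis-only blank; four-parameter curve fitting gave IC50.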
# AGS cells (KRAS G12D) = assay: Cell proliferation inhibition assay, 3D, CellTiter-Glo 3D, AGS; conditions: AGS 3D sphere model, 5 days incubation
# Method in brief: as §1
IC50 [1] [nM],IC50 [2] [nM],IC50 (AGS cells (KRAS G12D)) [nM],SMILES,"IC50 ([1]; Homo sapiens, ASPC1, 120 h) [nM]",IC50 ([2]; Homo sapiens) [nM],"IC50 (AGS cells (KRAS G12D); Homo sapiens, 120 h) [nM]"
–,–,–,"C#Cc1cc(F)cc2cccc(-c3nc4c5c(nc(OCC67CC(=C)CN6CC(=C)C7)nc5c3F)N3C[C@H]5CC[C@H](N5)[C@H]3[C@H](C)O4)c12 [Example Z550, (5S,5aS,6S,9R)-12-((2,6-dimethylenetetrahydro-1H-pyrrolizin-7a (5H)-yl)methoxy)-2-(8-ethynyl-6-fluoronaphthalen-1-yl)-1-fluoro-5-methyl-5a,6,7,8,9,10-hexahydro-5H-4-oxa-3,10a, 11,13,14-pentaaza-6,9-methanonaphtho[1,8-ab]heptalene]",394,91.2,109
–,–,–,"C#Cc1cccc2cc(N)cc(-c3nc4c5c(nc(OCC67CC(=C)CN6C[C@H](F)C7)nc5c3F)N3C[C@H]5CC[C@H](N5)[C@H]3[C@H](C)O4)c12 (stereo partly drawn) [Example Z699, 5-ethynyl-4-((5S,5aS,6S,9R)-1-fluoro-12-(((2R)-2-fluoro-6-methylenetetrahydro-1H-pyrrolizin-7a (5H)-yl)methoxy)-5-methyl-5a,6,7,8,9,10-hexahydro-5H-4-oxa-3,10a, 11,13,14-pentaaza-6,9-methanonaphtho[1,8-ab]heptalen-2-yl) naphthalen-2-amine]",2.37,0.44,1.98
–,–,–,"C#Cc1cccc2cc(N)cc(-c3nc4c5c(nc(OC[C@@]67CCCN6CC(F)(F)C7)nc5c3F)N3C[C@H]5CC[C@H](N5)[C@H]3[C@H](C)O4)c12 (single isomer, unassigned) [Example Z735]",18.1,5.62,35.2
–,–,–,"C#Cc1cccc2cc(N)cc(-c3nc4c5c(nc(OCC6(CN7CCOCC7)CC6)nc5c3F)N3C[C@@H](C)NC[C@H]3[C@H](C)O4)c12 [Example Z709, 5-ethynyl-4-((5S,5aS,8R)-1-fluoro-5,8-dimethyl-11-((1-(morpholinomethyl)cyclopropyl)methoxy)-5,5a,6,7,8,9-hexahydro-4-oxa-3,7,9a,10,12-pentaazabenzo[4,5]cyclohepta[1,2,3-de]naphthalen-2-yl) naphthalen-2-amine]",117,12.2,86.8
53.5,14.6,39.1,"C#Cc1c(F)ccc2cccc(-c3nc4c5c(nc(OC[C@]67CCCN6CCC7=C)nc5c3F)N3C[C@H]5CC[C@H](N5)[C@H]3[C@H](C(F)F)O4)c12 [Example Z648, (5R,5aS,6S,9R)-5-(difluoromethyl)-2-(8-etbynyl-7-fluoronaphthalen-1-yl)-1-fluoro-12-(((R)-1-methylenetetrahydro-1H-pyrrolizin-7a (5H)-yl)methoxy)-5a,6,7,8,9,10-hexahydro-5H-4-oxa-3,10a, 11,13,14-pentaaza-6,9-methanonaphtho[1,8-ab]heptalene]",–,–,–
–,–,–,"C#Cc1c(F)ccc2cc(O)cc(-c3nc4c5c(nc(OCC67CCCN6CC(F)(F)C7)nc5c3F)N3C[C@H]5CC[C@H](N5)[C@H]3[C@H](C)O4)c12 (stereo partly drawn) [Example Z723, 4-((5S,5aS,6S,9R)-12-((2,2-difluorotetrahydro-1H-pyrrolizin-7a (5H)-yl)methoxy)-1-fluoro-5-methyl-5a,6,7,8,9,10-hexahydro-5H-4-oxa-3,10a, 11,13,14-pentaaza-6,9-methanonaphtho[1,8-ab]heptalene-2-yl)-5-ethynyl-6-fluoronaphthalen-2-ol]",55.4,6.96,15.1
–,–,–,"C#Cc1cccc2c(F)c(N)cc(-c3nc4c5c(nc(OCC67C[C@@H](F)CN6CCC7=C)nc5c3F)N3C[C@H]5CC[C@H](N5)[C@H]3[C@H](C)O4)c12 (stereo partly drawn) [Example Z728, 5-ethynyl-1-fluoro-4-((5S,5aS,6S,9R)-1-fluoro-12-(((6R)-6-fluoro-1-methylenetetrahydro-1H-pyrrolizin-7a (5H)-yl)methoxy)-5-methyl-5a,6,7,8,9,10-hexahydro-5H-4-oxa-3,10a, 11, 13,14-pentaaza-6,9-methanonaphtho[1,8-ab]heptalene-2-yl) naphthalen-2-amine]",5.41,0.95,3.75
–,–,–,"C#Cc1cccc2c(F)c(N)cc(-c3nc4c5c(nc(OCC67CCCN6CC(F)(F)C7)nc5c3F)N3C[C@H]5CC[C@H](N5)[C@H]3[C@H](C)O4)c12 (stereo partly drawn) [Example Z725, 4-((5S,5aS,6S,9R)-12-((2,2-difluorotetrahydro-1H-pyrrolizin-7a (5H)-yl)methoxy)-1-fluoro-5-methyl-5a,6,7,8,9,10-hexahydro-5H-4-oxa-3,10a,11,13,14-pentaaza-6,9-methanonaphtho[1,8-ab]heptalen-2-yl)-5-ethynyl-1-fluoronaphthalen-2-amine]",106,42.3,62.7
–,–,–,"C#Cc1c(F)ccc2cccc(-c3nc4c5c(nc(OC[C@@]67C[C@@H](F)CN6CCC7=C)nc5c3F)N3C[C@H]5CC[C@H](N5)[C@H]3[C@H](C)O4)c12 (single isomer, unassigned) [Example Z690]",45.9,16.7,31.5
–,–,–,"C#Cc1cccc2cc(N)cc(-c3nc4c5c(nc(OCC6(CN7CC(F)(F)C7)CC6)nc5c3F)N3C[C@H]5CC[C@H](N5)[C@H]3[C@H](C)O4)c12 [Example Z713, 4-((5S,5aS,6S,9R)-12-((1-((3,3-difluoroazetidin-1-yl)methyl)cyclopropyl)methoxy)-1-fluoro-5-methyl-5a,6,7,8,9,10-hexahydro-5H-4-oxa-3,10a, 11, 13,14-pentaaza-6,9-methanonaphtho[1,8-ab]heptalen-2-yl)-5-ethynylnaphthalen-2-amine]",55.6,22,73.5
–,–,–,"C#Cc1cccc2cc(N)cc(-c3nc4c5c(nc(OC[C@@H]6CCCN6CC(F)F)nc5c3F)N3C[C@H]5CC[C@H](N5)[C@H]3[C@H](C)O4)c12 [Example Z733, 4-((5S,5aS,6S,9R)-12-(((S)-1-(2,2-difluoroethyl)pyrrolidin-2-yl)methoxy)-1-fluoro-5-methyl-5a,6,7,8,9,10-hexahydro-5H-4-oxa-3,10a,11,13,14-pentaaza-6,9-methanonaphtho[1,8-ab]heptalen-2-yl)-5-ethynylnaphthalen-2-amine]",267,76,297
–,–,–,"C#Cc1cccc2cc(N)cc(-c3nc4c5c(nc(OC[C@]67CCCN6CC(F)(F)C7)nc5c3F)N3C[C@H]5CC[C@H](N5)[C@H]3[C@H](C)O4)c12 [Example Z734, 4-((5S,5aS,6S,9R)-12-(((R)-2,2-difluorotetrahydro-1H-pyrrolizin-7a (5H)-yl)methoxy)-1-fluoro-5-methyl-5a,6,7,8,9,10-hexahydro-5H-4-oxa-3,10a, 11,13, 14-pentaaza-6,9-methanonaphtho[1,8-ab]heptalene-2-yl)-5-ethynylnaphthalen-2-amine]",12.1,3.42,17.2
–,–,–,"C#Cc1c(F)ccc2cccc(-c3nc4c5c(nc(OCC67CC(=C)CN6CC(=C)C7)nc5c3F)N3C[C@H]5CC[C@H](N5)[C@H]3[C@H](C)O4)c12 [Example Z388, (5S,5aS,6S,9R)-12-((2,6-dimethylenetetrahydro-1H-pyrrolizin-7a (5H)-yl)methoxy)-2-(8-ethynyl-7-fluoronaphthalen-1-yl)-1-fluoro-5-methyl-5a,6,7,8,9,10-hexahydro-5H-4-oxa-3,10a, 11, 13,14-pentaaza-6,9-methanonaphtho[1,8-ab]heptalene]",191,17.9,53.1
–,–,–,"C#Cc1cccc2cc(O)cc(-c3nc4c5c(nc(OC[C@@]67CCCN6C[C@H](F)C7)nc5c3F)N3C[C@H]5CC[C@H](N5)[C@H]3[C@H](C)O4)c12 [Example Z384, 5-ethynyl-4-((5S,5aS,6S,9R)-1-fluoro-12-(((2R,7aS)-2-fluorotetrahydro-1H-pyrrolizin-7a (5H)-yl)methoxy)-5-methyl-5a,6,7,8,9,10-hexahydro-5H-4-oxa-3,10a, 11,13,14-pentaaza-6,9-methanonaphtho[1,8-ab]heptalen-2-yl) naphthalen-2-ol]",7.34,0.65,1.5
–,–,–,"C#Cc1c(F)ccc2cccc(-c3nc4c5c(nc(OCC67CC(=C)CN6[C@H]6C[C@H]6C7)nc5c3F)N3C[C@H]5CC[C@H](N5)[C@H]3[C@H](C)O4)c12 (stereo partly drawn) [Example Z604, (5S,5aS,6S,9R)-2-(8-ethynyl-7-fluoronaphthalen-1-yl)-1-fluoro-5-methyl-12-(((1aS,6aS)-4-methylenehexahydrocyclopropa[b]pyrrolizin-5a (3H)-yl)methoxy)-5a,6,7,8,9,10-hexahydro-5H-4-oxa-3,10a, 11, 13,14-pentaaza-6,9-methanonaphtho[1,8-ab]heptalene]",468,95,573
–,–,–,"C#Cc1c(F)ccc2cccc(-c3nc4c5c(nc(OCC67CCCN6C6(CC6)CC7)nc5c3F)N3C[C@H]5CC[C@H](N5)[C@H]3[C@H](C)O4)c12 (stereo partly drawn) [Example Z631, (5S,5aS,6S,9R)-2-(8-Ethynyl-7-Fluoronaphthalen-1-Yl)-1-Fluoro-5-Methyl-12-((Tetrahydrospiro[Cyclopropane-1,3′-Pyrrolizin]-7a′ (5′H)-Yl)Methoxy)-5a,6,7,8,9,10-Hexahydro-5H-4-Oxa-3,10a,11,13,14-Pentaaza-6,9-Methanonaphtho[1,8-Ab]Heptalene]",254,91.9,201
